Among the test systems are SR leukemia; MDA-N; COLO 205 colon; UACC-257 melanoma; SNB-75 CNS; HCC-2998 colon; RXF 393 renal; MDA-MB-435; EKVX NSCLC; NCI-H522 lung; NCI-H226 lung; KM12 colon; RPMI-8226 leukemia; PC-3 prostate; DU-145 prostate; HT29 colon; NCI-H460 lung; MOLT-4 leukemia; SK-OV-3 ovarian.
Common to all, as to assay: NCI-60 cell line screen, 48 h

The text below walks through data of PubChem BioAssay (NCI).

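Method: 48-hour compound exposure of cells in 96-well plates, five concentrations, linear interpolation of endpoints. TGI: total growth inhibition.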

Regarding `O=CNc1ccccc1OCCOc1ccccc1NC=O`, the TGI with SR leukemia, in the test on MDA-N, in the test on COLO 205 colon, with UACC-257 melanoma, in the test on SNB-75 CNS and in the test with HCC-2998 colon was > 100 µM each time. Also, the TGI in the test with RXF 393 renal, with MDA-MB-435, in the test with EKVX NSCLC, in the test with NCI-H522 lung, with NCI-H226 lung and in the test on KM12 colon was > 100 µM throughout. Moreover, the TGI in the test on RPMI-8226 leukemia, in the test on PC-3 prostate, in the test on DU-145 prostate, in the test with HT29 colon, in the test with NCI-H460 lung and with MOLT-4 leukemia was > 100 µM throughout. The TGI in the test on SK-OV-3 ovarian is > 100 µM.
As for `CN(N=O)c1nc2c(C(N)=O)ncn2s1`, the TGI in the test on SR leukemia, with MDA-N, in the test with COLO 205 colon, in the test with UACC-257 melanoma, in the test with SNB-75 CNS and with HCC-2998 colon was > 100 µM in each case. Further, the TGI in the test on RXF 393 renal, with MDA-MB-435, with EKVX NSCLC, in the test on NCI-H522 lung, in the test with NCI-H226 lung and in the test on KM12 colon was > 100 µM in each case. The TGI with RPMI-8226 leukemia, with PC-3 prostate, with DU-145 prostate, in the test with HT29 colon, in the test with NCI-H460 lung and with MOLT-4 leukemia was > 100 µM each time. The TGI with SK-OV-3 ovarian was > 100 µM.
With `O=[N+]([O-])c1cccc2nccc(NCCN3CCOCC3)c12`, the TGI in the test with SR leukemia is > 31.4 µM; in the test on MDA-N, 61.4 µM; with COLO 205 colon, 49 µM; in the test on UACC-257 melanoma, 29 µM; in the test on SNB-75 CNS it was 47.2 µM; with HCC-2998 colon it was 26.4 µM. Further, the TGI with RXF 393 renal is 31.9 µM; in the test with MDA-MB-435 it was 81.8 µM; with EKVX NSCLC, > 53.8 µM; with NCI-H522 lung, 22 µM; in the test with NCI-H226 lung, 17 µM; in the test on KM12 colon, 40 µM. The TGI is > 63.5 µM in the test on RPMI-8226 leukemia; 39.1 µM with PC-3 prostate; > 100 µM with DU-145 prostate; 44.4 µM in the test on HT29 colon; 32.5 µM in the test with NCI-H460 lung; > 56.5 µM in the test on MOLT-4 leukemia. In the test on SK-OV-3 ovarian, the TGI is > 100 µM.
On to `O=[N+]([O-])/C(Cl)=C(/C(Cl)=C(Cl)Cl)N1CCOCC1`, for which the TGI in the test with SR leukemia turned out to be 6.42 µM; in the test on MDA-N, 6.77 µM; in the test with COLO 205 colon it was 5.45 µM; in the test on UACC-257 melanoma, 9.3 µM; in the test with SNB-75 CNS, 17.9 µM; in the test with HCC-2998 colon, 7.52 µM. Moreover, the TGI in the test with RXF 393 renal is 7.93 µM; in the test with MDA-MB-435 it was 7.64 µM; with EKVX NSCLC, 21.6 µM; in the test with NCI-H522 lung, 4.73 µM; in the test with NCI-H226 lung it was 40.4 µM; in the test with KM12 colon, 13.1 µM. Also, the TGI in the test on RPMI-8226 leukemia was 6.58 µM; with PC-3 prostate, 19.3 µM; in the test with DU-145 prostate, 26.9 µM; with HT29 colon, 14.2 µM; in the test with NCI-H460 lung, 18.4 µM; with MOLT-4 leukemia it was 7.32 µM. In the test on SK-OV-3 ovarian, this molecule gave a TGI of 27.3 µM.
Take `CC(C)(C)OC(=O)CCCCCNC(=O)CCCCCNC(=O)CCC(CN(CC(=O)OCc1ccccc1)CC(=O)OCc1ccccc1)N(CC(=O)OCc1ccccc1)CC(=O)OCc1ccccc1` (stereo not drawn): the TGI is > 100 µM in the test with SR leukemia; > 100 µM in the test with MDA-N; > 100 µM with COLO 205 colon; > 100 µM in the test on UACC-257 melanoma; 81.9 µM in the test with SNB-75 CNS; > 100 µM in the test on HCC-2998 colon. The TGI with RXF 393 renal, in the test on MDA-MB-435, with EKVX NSCLC, in the test on NCI-H522 lung, with NCI-H226 lung and in the test with KM12 colon was > 100 µM throughout. The TGI in the test on RPMI-8226 leukemia, in the test with PC-3 prostate, in the test with DU-145 prostate, in the test with HT29 colon, in the test with NCI-H460 lung and in the test on MOLT-4 leukemia was > 100 µM in each case. The TGI in the test on SK-OV-3 ovarian was > 100 µM.
For `Cc1c(/C=N/NC(=S)N2CCCCC2)c(=O)n(-c2ccccc2)n1C`, the TGI in the test with SR leukemia, in the test on MDA-N, in the test on COLO 205 colon, in the test with UACC-257 melanoma, with SNB-75 CNS and in the test with HCC-2998 colon was > 100 µM throughout. In addition, the TGI is 97.3 µM with RXF 393 renal; > 100 µM in the test with MDA-MB-435; > 100 µM in the test on EKVX NSCLC; > 100 µM with NCI-H522 lung; > 100 µM in the test with NCI-H226 lung; > 100 µM with KM12 colon. In addition, the TGI in the test on RPMI-8226 leukemia, in the test on PC-3 prostate, in the test on DU-145 prostate, in the test with HT29 colon, in the test with NCI-H460 lung and with MOLT-4 leukemia was > 100 µM throughout. Also, in the test with SK-OV-3 ovarian, the TGI is > 100 µM.
As for `CCOC(=O)C(=CNc1ccc(F)c(F)c1)C(=O)OCC`, the TGI in the test with SR leukemia, with MDA-N, with COLO 205 colon, in the test with UACC-257 melanoma, with SNB-75 CNS and in the test on HCC-2998 colon was > 100 µM each time. Also, the TGI in the test on RXF 393 renal, in the test with MDA-MB-435, with EKVX NSCLC, with NCI-H522 lung, with NCI-H226 lung and with KM12 colon was > 100 µM throughout. The TGI in the test on RPMI-8226 leukemia, with PC-3 prostate, with DU-145 prostate, in the test on HT29 colon, in the test with NCI-H460 lung and in the test on MOLT-4 leukemia was > 100 µM in each case. The TGI in the test on SK-OV-3 ovarian is > 100 µM.
